≈ marks a conversion by molar mass, not a printed value. Where two headings read alike, the source gives them in different places. Blank lines part the entries; values can stand above or below the compound they belong to.
What was measured:
[1] = Change in appearance of the salts at room temperature for 24 hours; type: physicochemical; conditions: for Initial appearance: dried material; for Appearance (stored at R.T. for 24 hrs) / change in appearance (text summary of Table 4): room temperature, 24 hours
Protocol: In the case of the suspension and the gel, firstly it was vacuum dried under reduced pressure and secondly vacuum dried for 24 to 48 hours.

[2] = Stability evaluation: change in appearance under storage conditions; type: physicochemical
Excerpt: In order to evaluate the change in appearance of the compounds according to Comparative Examples and Examples, it was observed after storing each compound in accordance with the conditions shown in Table 6 below.

[3] = Solubility of the compound of formula (1) in organic solvents (HPLC); type: physicochemical
[4] = Stability evaluation: change in the amount of related substances; type: physicochemical; conditions: for change (increase) in the amount of related substances: open state, room temperature, 3 days, FIG. 3
[5] = Stability evaluation: change in moisture content; type: physicochemical; conditions: open state, room temperature (20 to 25° C., 50% or less), 3 days vs initial; FIG. 2
Protocol: In order to evaluate the change in moisture content, the compounds according to Examples and Comparative Examples were stored in an open state at room temperature (20 to 25° C., 50% or less), and the change was measured by the difference between the initial moisture content and the moisture content after 3 days.

[6] = 1 day, Acceleration (40±2° C. and 75±5% RH)
[7] = 1 day, Long-term (25±2° C. and 60±5% RH)
[8] = 1 day, Room temperature (20 to 25° C., 50% or less)

Initial appearance [1]: Foam
Appearance (stored at R.T. for 24 hrs) [1]: Gel-like
SMILES: O=C(O)CC(O)(CC(=O)O)C(=O)O [Citric acid]

Initial appearance [1]: Foam
Appearance (stored at R.T. for 24 hrs) [1]: Gel-1ike
SMILES: O=C(O)/C=C\C(=O)O [Maleic acid]

Initial appearance [1]: Foam
Appearance (stored at R.T. for 24 hrs) [1]: Gel-like
SMILES: O=C(O)CNC(=O)c1ccccc1 [Hippuric acid]

Initial appearance [1]: Foam
Appearance (stored at R.T. for 24 hrs) [1]: Gel-like
SMILES: CC(=O)O [Acetic acid]

Initial appearance [1]: Foam
Appearance (stored at R.T. for 24 hrs) [1]: Gel-like
SMILES: O=S(=O)(O)c1ccccc1 [Benzensulfonic acid]

SMILES: CN(C)CCCNC(=O)/C(=C/CCCCC(=O)NO)COc1cccc2ccccc12 [Comparative Example 1, alkylcarbamoyl naphthalenyloxy octenoyl hydroxyamide]
Appearance [2, 6]: Gel-like
Appearance [2, 7]: Gel-like
Appearance [2, 8]: Gel-like
Appearance ([2]; 1 day, Severe (60±2° C.)): Gel-like
Appearance ([2]; Initial value): Foam
change in appearance (Table 6) ([2]; storage conditions of Table 6): changed from initial foam such as a sponge to a highly viscous liquid or gel structure
Solubility ([3]; 1,4-dioxane, 20° C.): 72.3 mg/mL (≈ 169 mM)
Solubility ([3]; 1,4-dioxane, 50° C.): 72.3 mg/mL (≈ 169 mM)
Solubility ([3]; 1-butanol, 20° C.): >58.8 mg/mL
Solubility ([3]; 2-propanol, 20° C.): 73.8 mg/mL (≈ 173 mM)
Solubility ([3]; 2-propanol, 50° C.): 77.3 mg/mL (≈ 181 mM)
Solubility ([3]; Acetone, 20° C.): 43.3 mg/mL (≈ 101 mM)
Solubility ([3]; Acetone, 50° C.): 43.7 mg/mL (≈ 102 mM)
Solubility ([3]; Acetonitrile, 20° C.): 6.1 mg/mL (≈ 14.3 mM)
Solubility ([3]; Acetonitrile, 50° C.): 16.5 mg/mL (≈ 38.6 mM)
Solubility ([3]; Butan-2-ol, 20° C.): 39.6 mg/mL (≈ 92.6 mM)
Solubility ([3]; Butan-2-ol, 50° C.): 72.0 mg/mL (≈ 168 mM)
Solubility ([3]; Chloroform, 20° C.): >80.7 mg/mL
Solubility ([3]; Dimethyl sulfoxide, 20° C.): >70.6 mg/mL
Solubility ([3]; Ethanol, 20° C.): >77.4 mg/mL
Solubility ([3]; Ethyl acetate, 20° C.): 4.6 mg/mL (≈ 10.8 mM)
Solubility ([3]; Ethyl acetate, 50° C.): 20.3 mg/mL (≈ 47.5 mM)
Solubility ([3]; Methanol, 20° C.): >68.4 mg/mL
Solubility ([3]; Methylene Ketone, 20° C.): 66.6 mg/mL (≈ 156 mM)
Solubility ([3]; Methylene Ketone, 50° C.): 69.7 mg/mL (≈ 163 mM)
Solubility ([3]; N,N-dimethylformamide, 20° C.): >76.6 mg/mL
Solubility ([3]; Propanol, 20° C.): >70.3 mg/mL
Solubility ([3]; Tert-butylmethyl ether, 20° C.): 0.8 mg/mL (≈ 1.87 mM)
Solubility ([3]; Tert-butylmethyl ether, 50° C.): 0.8 mg/mL (≈ 1.87 mM)
Solubility ([3]; Tetrahydrofuran, 20° C.): >74.0 mg/mL
Solubility ([3]; Toluene, 20° C.): 1.0 mg/mL (≈ 2.34 mM)
Solubility ([3]; Toluene, 50° C.): 3.3 mg/mL (≈ 7.72 mM)
change (increase) in the amount of related substances [4]: about 10%
Initial appearance [1]: Foam
Appearance (stored at R.T. for 24 hrs) [1]: Gel-like
increase in moisture content [5]: about 3%

Initial appearance [1]: Powder
Appearance (stored at R.T. for 24 hrs) [1]: Gel-like
SMILES: O=C(O)/C=C/C(=O)O [Fumaric acid]

SMILES: CN(C)CCCNC(=O)/C(=C/CCCCC(=O)NO)COc1cccc2ccccc12.O=C(O)C(F)(F)F [Trifluoracetic acid]
Initial appearance [1]: Ge-1ike
Appearance (stored at R.T. for 24 hrs) [1]: Gel-like

SMILES: CN(C)CCCNC(=O)/C(=C/CCCCC(=O)NO)COc1cccc2ccccc12.O=C(O)[C@H](O)[C@@H](O)[C@H](O)[C@H](O)CO [Gluconic acid, (D−)]
Initial appearance [1]: Powder
Appearance (stored at R.T. for 24 hrs) [1]: Gel-like

SMILES: O=S(=O)(O)O [Sulfuric acid]
Initial appearance [1]: Gel-like
Appearance (stored at R.T. for 24 hrs) [1]: Gel-like

Initial appearance [1]: Foam
Appearance (stored at R.T. for 24 hrs) [1]: Gel-like
SMILES: CCS(=O)(=O)O [Ethanesulfonic acid]

SMILES: CN(C)CCCNC(=O)/C(=C/CCCCC(=O)NO)COc1cccc2ccccc12.Cc1ccc(S(=O)(=O)O)cc1 [Toluensulfonic acid, para]
Initial appearance [1]: Foam
Appearance (stored at R.T. for 24 hrs) [1]: Gel-like

SMILES: O=C(O)c1ccccc1 [Benzoic acid]
Initial appearance [1]: Foam
Appearance (stored at R.T. for 24 hrs) [1]: Gel-like

SMILES: O=C(O)CCCC(=O)O [Glutaric acid]
Initial appearance [1]: Powder
Appearance (stored at R.T. for 24 hrs) [1]: Gel-like

Initial appearance [1]: Foam
Appearance (stored at R.T. for 24 hrs) [1]: Gel-like
SMILES: O=C(O)CC(=O)O [Malonic acid]

Initial appearance [1]: Powder
Appearance (stored at R.T. for 24 hrs) [1]: Gel-like
SMILES: O=C(O)CCC(=O)O [Succinic acid]

Initial appearance [1]: Powder
Appearance (stored at R.T. for 24 hrs) [1]: Powder
change in appearance (text summary of Table 4) [1]: no change in appearance was observed
SMILES: CCCCCCCCCCCCCCCCCC(=O)O [Stearic acid]

SMILES: CN(C)CCCNC(=O)/C(=C/CCCCC(=O)NO)COc1cccc2ccccc12.O=C(O)C(O)C(O)C(=O)O [Example 1, Alkylcarbamoyl Naphthalenyloxy Octenoyl Hydroxyamide Tartaric Acid Salt]
Appearance [2, 6]: Gel-like
Appearance [2, 7]: Gel-like
Appearance [2, 8]: Powder
Appearance ([2]; 1 day, Severe (60±2° C.)): Powder
Appearance ([2]; Initial value): Powder
amount of formation of the related substances ([4]; according to temperature and storage period, FIGS. 4 and 5): maintained in a certain range at a relatively low temperature
change (increase) in the amount of related substances [4]: 0.05%
Initial appearance [1]: Powder
Appearance (stored at R.T. for 24 hrs) [1]: Powder
change in appearance (text summary of Table 4) [1]: no change in appearance was observed
increase in moisture content [5]: 2%
Content (bottle package, 1 day, Acceleration (40±2° C. and 75±5% RH)): 89.1
Content (bottle package, 1 day, Long-term (25±2° C. and 60±5% RH)): 99.1
Content (bottle package, 3 days, Acceleration (40±2° C. and 75±5% RH)): 84.0
Content (bottle package, 3 days, Long-term (25±2° C. and 60±5% RH)): 84.1
Content (bottle package, 7 days, Acceleration (40±2° C. and 75±5% RH)): 78.5
Content (bottle package, 7 days, Long-term (25±2° C. and 60±5% RH)): 78.5
change in content (text summary of Tables 7 and 8) (open state and bottle package, all storage conditions): maintained constant at room temperature regardless of the packaging state
Content (open state, 1 day, Acceleration (40±2° C. and 75±5% RH)): 92.3
Content (open state, 3 days, Severe (60±2° C.)): 97.2
Content (open state, 7 days, Room temperature): 100.1
Content (open state, 7 days, Severe (60±2° C.)): 89.1
Content (open state, Initial value): 98.9
Content (polyethylene bottle package (added silica gel), Initial value): 98.9

SMILES: Cl [Hydrochloric acid]
Initial appearance [1]: Gel-like
Appearance (stored at R.T. for 24 hrs) [1]: Gel-like

SMILES: CN(C)CCCNC(=O)/C(=C/CCCCC(=O)NO)COc1cccc2ccccc12.CS(=O)(=O)O [Methanensulfonic acid]
Initial appearance [1]: Foam
Appearance (stored at R.T. for 24 hrs) [1]: Gel-like

Initial appearance [1]: Powder
Appearance (stored at R.T. for 24 hrs) [1]: Gel-like
SMILES: O=S(=O)(O)c1ccc2ccccc2c1 [Naphthalene-2-sulfonic acid]

Initial appearance [1]: Powder
Appearance (stored at R.T. for 24 hrs) [1]: Gel-like
SMILES: O=C(O)c1ccc2ccccc2c1O [Naphthoic acid, 1-hydroxy-2]

— patent publication US11655207B2, “Pharmaceutically acceptable salt of alkylcarbamoyl naphthalenyloxy octenoylhydroxy amide or of derivative thereof and method for preparing same” (CRYSTALGENOMICS, INC., priority 2017, dated 2023)
